Experimental data from patent US7300770B2, “Detection of microbe contamination on elastomeric articles” (Kimberly-Clark Worldwide, Inc., priority 2004, dated 2007).
“And” between values parts separate entries of the source, which are not always exact repeats. Equal entries are not always repeated.

Assays:
E. coli [1] = test: Titration of microorganisms with Reichardt's dye on cellulosic towel; design: species or system Escherichia coli; settings: Gram(-), 10^7 CFU/mL, 100 microliters
E. coli [2] = test: Cyclodextrin and Reichardt's dye coated towel exposed to E. coli
Experimental: A SCOTT® paper towel was first coated with hydroxypropyl-beta-cyclodextrin (from Cerestar International, Hammond, Ind., USA) in solution in water (1 gram in 20 milliliters) by dipping and air-drying at ambient temperature. After drying, the coated paper towel was treated with a solution of Reichardt's dye in isopropanol (1 weight percent) and allowed to air-dry. The dried towel was a purple/blue in color. The present inventors believe that the cyclodextrin hindered the crystallization of the dye, thus allowing a more vivid color of the dye to occur on the paper towel. This coated towel was used in a test with gram-negative bacteria (E. coli) and found to turn colorless in less than 5 seconds when an aliquot of 100 microliters of media containing 10,000 CFU per milliliter was applied to the towel. […] The inventors believe that by careful use of a coating (e.g. cyclodextrin), a monolayer coating of the dye may be formed.

E. coli [3] = test: Reichardt's dye and TMB coated towel exposed to E. coli suspension; settings: towel coated with Reichardt's dye and TMB
[4] = Longest wavelength peak absorption of dyes in three solvents (UV-Visible); type: physicochemical
Text: Reichardt's dye was used without further purification. […] Acetone, methanol, and acetonitrile solvents (HPLC grade) were obtained from Sigma-Aldrich Chemical Co., Inc. A Shimadzu UV-1601 UV-Visible Spectrophotometer (Shimadzu Corporation) was used to measure the longest wavelength peak absorption of the dyes in the range of 400 to 800 nanometers, dissolved in three different solvents, contained in quartz curvettes. The following table contains the results of the testing with the solvents on the left side and dyes across the top.

Influenza A = test: Virus detection on Reichardt's dye-coated stickers; settings: undiluted virus, 50 microliters, 3 minutes
vaccinia = settings: undiluted virus, 50 microliters, 3 minutes
S. aureus [5] = test: Visual quantification of S. aureus on dye-treated paper, with blind study
Experimental: The color differences at lower concentrations were less distinct, particularly for the brush-coated sheet. A blind study was then conducted. […] Concentrations of these three drops were unknown to two of the experiment participants. After approximately 2 minutes, the drops were removed and blotted. Using the control regions, the concentrations of each sample were each visually estimated by these two persons. Both persons correctly estimated the concentration of the first sample to be 10^6 CFU/mL. […] The persons, however, incorrectly estimated the third sample to be 10^3 CFU/mL. […] The present inventors believe, however, that the concentration of the chromogen and uniformity of the coating may be readily selected to achieve accurate results at such low concentrations.

E. coli [6] = test: Delta E of dye-coated paper and label substrates versus bacteria concentration; settings: for Delta E of unknown sample / log CFU/ml (estimated): E. coli
Text: (§1) More specifically, indicator strips coated with Reichardt's dye were exposed with decreasing amounts of the bacteria aliquots. A hand-held spectrophotometer was used to after application of each aliquot to determine “Delta E” value (calculated using L*, A*, and B* values) for each CFU/mL concentration. The results are set forth below in Table 4 (for paper) and Table 5 (for label). From the above, standard detection curves were generated as shown in FIGS. 5-7 for S. aureus, P. aeruginosa, and E. coli, respectively. As shown, each type of bacteria changed the color of the dye-treated substrate in a slightly different way, creating a unique standard curve. Thereafter, drops of unknown bacteria concentrations were placed on the stickers and a spectrophotometer was used to measure the “Delta E” of the resulting color. The numerical values obtained for each unknown sample set forth below in Tables 6-7. […] Although a few of the results were not completely accurate, the present inventors believe that improving the uniformity of the coating would further enhance detection accuracy.

P. aeruginosa = test: as above
Text: as §1

S. aureus [7] = test: as above
Text: as §1

L. acidophilus = test: Titration of microorganisms with Reichardt's dye on cellulosic towel; settings: Lactobacillus, Gram(+), 10^7 CFU/mL, 100 microliters; 160 mg/10 mL acetonitrile
C. albicans = test: as above; settings: yeast, 10^7 CFU/mL, 100 microliters
aged raw chicken juice = test: Dye spray on aged raw chicken juice pattern and re-colorization with 1 N NaOH
[8] = label substrate, log CFU/ml (actual) 7
[9] = paper substrate, log CFU/ml (actual) 3
[10] = paper substrate, P. aeruginosa, log CFU/ml (actual) 3
[11] = paper substrate, S. aureus, log CFU/ml (actual) 5

In the case of `[O-]c1c(-c2ccccc2)cc(-[n+]2c(-c3ccccc3)cc(-c3ccccc3)cc2-c2ccccc2)cc1-c1ccccc1` [Reichardt's dye, 4-(2,4,6-triphenylpyridinium-1-yl)-2,6-diphenylphenolate], the “Amount of Dye Required for Persistent Color” value (from here on “Amount of Dye Required”) (E. coli [1]) was 80 µL, the “Time to turn colorless” value (E. coli [2]; 100 microliters of media containing 10,000 CFU per milliliter) was “less than 5 seconds” and the “Time to color change” value (E. coli [2]; 500 CFU per milliliter) was no more than 15 s. For the same molecule, the “Bacteria concentration down to which color change occurred” value (E. coli [2]; hydroxypropyl-beta-cyclodextrin coated towel) was 500 CFU per milliliter, the “Time to change color to a white spot” value (E. coli [3]) was “less than 10 seconds” and the Color in solvent ([4]; Acetone) was “(Bluish-green)”. The “Longest wavelength peak absorption” value ([4]; Acetone) was 674 nm, the Color in solvent ([4]; Acetonitrile) was “(Blue)” and the “Longest wavelength peak absorption” value ([4]; Acetonitrile) was 623 nm. The Color in solvent ([4]; Methanol) was “(red)”, the “Longest wavelength peak absorption” value ([4]; Methanol) was 509 nm and the De-colorization of sticker (Influenza A) was “less than that observed for the other viruses”. For the same molecule, the De-colorization of sticker (vaccinia) was “less than that observed for the other viruses”, the “Dye added until the color persisted” value (Polio virus; 100 microliters undiluted virus, 80 mg/10 mL acetonitrile with or without TWEEN 80) was “approximately 9 drops” and the “Discharge of dye color on virus spot” value (Polio virus; surfactant- and non-surfactant-containing solutions) was “rapidly discharged”. For the same molecule, the “S. aureus concentration giving obvious color change” value (S. aureus [5]; Neenah Bond paper, 80 mg/10 mL acetonitrile, about 2 minutes) was ≥ 10^5 CFU/mL, the “Visually estimated concentration in blind study” value (“Visually estimated concentration” for short) (S. aureus [5]; first sample, actual 10^6 CFU/mL, dip-coated sheet) was 10^6 CFU/mL and the “Visually estimated concentration” value (S. aureus [5]; second sample, actual 10^5 CFU/mL, brush-coated sheet) was 10^5 CFU/mL. For the same molecule, the “Visually estimated concentration” value (S. aureus [5]; third sample, actual 10^4 CFU/mL, dip-coated sheet) was 10^3 CFU/mL, the “Delta E of unknown sample” value (E. coli [6]; [8]) was 7.1157 and the “log CFU/ml (estimated)” value (E. coli [6]; [8]) was 7. For the same molecule, the “Delta E (E. coli)” value (E. coli [6]; label substrate, log CFU/ml 3) was 5.13, the “Delta E (E. coli)” value (E. coli [6]; label substrate, log CFU/ml 4) was 5.201 and the “Delta E (E. coli)” value (E. coli [6]; label substrate, log CFU/ml 5) was 4.644. For the same molecule, the “Delta E (E. coli)” value (E. coli [6]; label substrate, log CFU/ml 6) was 4.867, the “Delta E (E. coli)” value (E. coli [6]; label substrate, log CFU/ml 7) was 7.779 and the “Delta E of unknown sample” value (E. coli [6]; [9]) was 1.3605. The “log CFU/ml (estimated)” value (E. coli [6]; [9]) was 5, the “Delta E (E. coli)” value (E. coli [6]; paper substrate, log CFU/ml 3) was 3.8228 and the “Delta E (E. coli)” value (E. coli [6]; paper substrate, log CFU/ml 4) was 3.0123. For the same molecule, the “Delta E (E. coli)” value (E. coli [6]; paper substrate, log CFU/ml 5) was 2.3320, the “Delta E (E. coli)” value (E. coli [6]; paper substrate, log CFU/ml 6) was 3.2574 and the “Delta E (E. coli)” value (E. coli [6]; paper substrate, log CFU/ml 7) was 4.3483. For the same molecule, the “Delta E (E. coli)” value (E. coli [6]; paper substrate, log CFU/ml 8) was 9.3642, the “Delta E of unknown sample” value (P. aeruginosa; label substrate, P. aeruginosa, log CFU/ml (actual) 6) was 4.4954 and 4.1002 and the “Delta E (P. aeruginosa)” value (P. aeruginosa; label substrate, log CFU/ml 3) was 3.8787. The “Delta E (P. aeruginosa)” value (P. aeruginosa; label substrate, log CFU/ml 4) was 4.9473, the “Delta E (P. aeruginosa)” value (P. aeruginosa; label substrate, log CFU/ml 5) was 4.6519 and the “Delta E (P. aeruginosa)” value (P. aeruginosa; label substrate, log CFU/ml 6) was 4.2419. For the same molecule, the “Delta E (P. aeruginosa)” value (P. aeruginosa; label substrate, log CFU/ml 7) was 6.9567, the “Delta E of unknown sample” value (P. aeruginosa; [10]) was 1.0267 and the “log CFU/ml (estimated)” value (P. aeruginosa; [10]) was 5. The “Delta E (P. aeruginosa)” value (P. aeruginosa; paper substrate, log CFU/ml 3) was 1.7900, the “Delta E (P. aeruginosa)” value (P. aeruginosa; paper substrate, log CFU/ml 4) was 2.2358 and the “Delta E (P. aeruginosa)” value (P. aeruginosa; paper substrate, log CFU/ml 5) was 1.7151. For the same molecule, the “Delta E (P. aeruginosa)” value (P. aeruginosa; paper substrate, log CFU/ml 6) was 1.3193, the “Delta E (P. aeruginosa)” value (P. aeruginosa; paper substrate, log CFU/ml 7) was 4.9569 and the “Delta E of unknown sample” value (S. aureus [7]; label substrate, S. aureus, log CFU/ml (actual) 6) was 6.869 and 4.228. For the same molecule, the “Delta E (S. aureus)” value (S. aureus [7]; label substrate, log CFU/ml 3) was 5.414, the “Delta E (S. aureus)” value (S. aureus [7]; label substrate, log CFU/ml 4) was 4.791 and the “Delta E (S. aureus)” value (S. aureus [7]; label substrate, log CFU/ml 5) was 6.92. For the same molecule, the “Delta E (S. aureus)” value (S. aureus [7]; label substrate, log CFU/ml 6) was 6.908, the “Delta E (S. aureus)” value (S. aureus [7]; label substrate, log CFU/ml 7) was 18.62 and the “Delta E of unknown sample” value (S. aureus [7]; [11]) was 3.161. The “log CFU/ml (estimated)” value (S. aureus [7]; [11]) was 5, the “Delta E (S. aureus)” value (S. aureus [7]; paper substrate, log CFU/ml 3) was 1.867 and the “Delta E (S. aureus)” value (S. aureus [7]; paper substrate, log CFU/ml 4) was 2.074. The “Delta E (S. aureus)” value (S. aureus [7]; paper substrate, log CFU/ml 5) was 2.447, the “Delta E (S. aureus)” value (S. aureus [7]; paper substrate, log CFU/ml 6) was 3.876 and the “Delta E (S. aureus)” value (S. aureus [7]; paper substrate, log CFU/ml 7) was 11.73. For the same molecule, the “Amount of Dye Required” value (L. acidophilus) was 110 µL, the “Amount of Dye Required” value (C. albicans) was 70 µL and the “Effect of 1 N NaOH on area that changed color” value (aged raw chicken juice; drop of 1 N NaOH) was “re-colorization of that small spot”. The “Color change with aged chicken juice pre-mixed with 1 molar NaOH” value (aged raw chicken juice; equal proportions, 30 seconds) was “rapid color change”.
